Holding throughout (experiment): NCI tumour cell line growth inhibition, 48 h
Assay [1] relates to DMS 273 small cell lung.
Assay [2] concerns HOP-18 NSCLC.
Assay [3] deals with KM20L2 colon.
Assay [4] relates to LXFL 529 NSCLC.
Assay [5] deals with M19-MEL melanoma.
The subject of assay [6] is RXF-631 renal.
For assay [7], the system named is SNB-78 CNS.
Assay [8] concerns XF 498 CNS.
Assay [9] concerns P388 leukemia.
Assay [10] has as its system P388/ADR leukemia.
Assay [11] deals with MDA-N.

Values joined by “and” are separate entries in the source; they are usually repeats but may differ in a detail not shown here. Identical values can stand only once.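 Briefly, cells in 96-well plates were exposed to five compound concentrations for 48 h, and endpoints were estimated by linear interpolation. GI50 = concentration required for 50% inhibition of growth. TGI marks complete inhibition of growth.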 Some results are limits rather than exact numbers.

As to `Cc1cc(C)cc(-n2c3nc(=O)n(C)c(=O)c-3nc3ccccc32)c1`, the TGI is 37.7 µM in assay [1]; over 100 µM in [2]; 52.9 µM in assay [3]; over 100 µM in assay [4]; 18.5 µM in assay [5]; 80.3 µM in [6]. Also, the TGI in assay [7] is over 100 µM; in assay [8], 81 µM.
Regarding `Cc1c[nH]c2c1C13CC1CN(C(=O)c1cc4cc(NC(=O)c5cc6ccccc6o5)ccc4[nH]1)C3=CC2=O` (centres undefined), the GI50 in [1], in assay [9], in assay [10] and in assay [7] was over 1.17 ng/mL in each case. Moreover, the TGI in assay [2] is under 0.001 µM; in [3], under 0.001 µM; in [5], under 0.001 µM; in [6], 0.0139 µM; in assay [7], 32.1 nM and 0.0318 µg/mL.
As to `Cc1cc(NS(=O)(=O)c2ccc(Nc3c4ccccc4nc4c(C(=O)Nc5ccc(S(=O)(=O)N=C(N)N)cc5)cccc34)cc2)no1`, the TGI in assay [1], in [2], in assay [3], in [4], in [5] and in [6] was over 100 µM each time. Besides, the TGI in [7] and in assay [8] was over 100 µM in each case.
`Cc1ccc2nc3c(C)c(Cl)c(=O)cc-3sc2c1`: the TGI in assay [1] is over 91.3 µM; in assay [2], 75.8 µM; in assay [3], over 100 µM; in [4], over 100 µM; in assay [5], 12.9 µM; in [11] it was 32.1 µM. For the same compound, the TGI came out at 91.3 µM in [6], 96.9 µM in assay [7] and 32.5 µM in assay [8].

The values above are taken from PubChem BioAssay (NCI).
